# Measurements: patent US20120135089A1, “E3 LIGASE INHIBITORS” (priority 2009, published 2012)
# Entries after “also recorded” stand apart in the source; their conditions may differ.
# Columns and labels:
# [1] = test system: Mdm2; test: Western blot of Mdm2 in MEFs; format: cell-based, mouse; conditions: 5 μg/ml (14 μM), 6 hours
# Protocol: MEFs were treated with 5 μg/ml (14 μM) of MEL23 for 6 hours. Cells were lysed and analyzed by Western blotting using anti-Mdm2 and anti-eIF4E antibodies. NT indicates a no treatment control.
# Cells were seeded and treated with the indicated compound(s). Cells were lysed after each time point in a buffer of 50 mM TrisHCl pH 7.5, 200 mM NaCl, 0.5% NP-40, and 1 complete mini EDTA-free protease inhibitor cocktail tablet per 10 mL of buffer (Roche, Cat. No. 8360170). Protein content was quantified using a Biorad protein assay reagent (Bio-Rad Laboratories, Hercules, Calif., Cat. No. 500-0006). SDS sample buffer was added to the samples, and the mixture was boiled for 5 minutes. Equal amounts of protein were resolved on a 1D SDS-PAGE gel. Following separation proteins were transferred to nitrocellulose membrane, blocked with 5% milk, and then incubated with primary antibody overnight at 4° C. The membrane was incubated with secondary-HRP antibody for 45 minutes at room temperature and developed with SuperSignal West Pico Substrate (Pierce, Rockford, Ill., Cat. No. 34080).
# [2] = molecular target: T1, Mdm2 RING-MdmX RING hetero-complex (Homo sapiens, UniProt O15151+Q00987); test: in vitro ubiquitination assay, Mdm2 RING-MdmX RING; format: biochemical
# T1 construct: 500 ng GST-Mdm2 (residues 400-491); GST-MdmX (residues 410-490); made in house
# T1 sequence (Q00987 400-491): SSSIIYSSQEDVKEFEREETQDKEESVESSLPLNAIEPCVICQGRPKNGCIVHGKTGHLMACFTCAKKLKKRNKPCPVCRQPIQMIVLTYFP
# T1 sequence (O15151 410-490): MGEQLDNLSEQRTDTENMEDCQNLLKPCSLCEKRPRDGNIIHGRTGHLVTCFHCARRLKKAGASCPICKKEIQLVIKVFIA
# Protocol: These assays were performed with 100 ng of full-length Flag-Mdm2 or 200 ng of Flag-Mdm2/HA-MdmX complexes (100 ng of each protein as each are present in a 1:1 ratio, when purified), ^32P-labeled ubiquitin, UbCH5c, and E1. Following a 30-minute incubation at 37° C., reactions were terminated and resolved on a SDS-PAGE gel followed by autoradiography. PC indicates positive control, and NC indicates negative control with UbCH5C eliminated from the reaction. The gels were quantified by phosphoimaging using ImageQuant software (GE Healthcare Bio-Sciences Corp., Piscataway, N.J.). […] Reactions were performed as in FIG. 11A except 500 ng GST-Mdm2 (residues 400-491) and GST-MdmX (residues 400-490) were used for ubiquitin polymerization. […] Reactions were performed as in FIG. 11A except with 3 μg of the Roc1/Cul1 ligase complex. Ubiquitination activity of the complex was tested in the presence of increasing concentrations of MEL23 and MEL24.
# Radiolabeled in vitro ubiquitination assays were carried out in 30 μl reaction mixtures with ^32P-labeled ubiquitin. 500 ng GST-Mdm2 (residues 400-491) and GST-MdmX (residues 410-490) were used for the RING-RING reactions. The products of the reaction were resolved on a SDS-PAGE gel and visualized by autoradiography.
# [3] = test system: U2OS (p53 wild-type) and H1299 (p53 null) cells; test: combination viability assay, excess over Bliss independence; format: cell-based, human
# Protocol: All values were normalized to no treatment. […] Percent cell death was determined by normalization to a no treatment control. Bliss Independence was determined by the formula C=A+B−A*B, where A is treatment with one compound alone and B is treatment with the second compound alone.
# Cells were then treated with the indicated concentration of compound. […] Fluorescence intensity was determined using the Victor3 Plate Reader (PerkinElmer). Median percent survival or growth inhibition was calculated and normalized to a no treatment control.
# The excess over the predicted Bliss independence was determined by subtracting the predicted Bliss effect for each treatment from the experimentally determined growth inhibition for the same treatment.
# [4] = test system: Mdm2, p21, puma, and bax transcripts; test: qRT-PCR of p53 target genes in RKO cells; format: cell-based, human; conditions: 5 μg/ml MEL23, 24 or 48 hours
# Protocol: (§1) RKO cells were treated with 5 μg/ml (14 μM) MEL23 for 24 or 48 hours. Quantitative real-time PCR was used to analyze the mRNA levels of the Mdm2, p21, puma, and bax transcripts. All values are normalized to no treatment, DMSO control. The figure is representative of three independent experiments and standard error bars represent intra-experimental error.
# as §1, with “48 hours, 0.1 μg/ml (0.2 μM) doxorubicin for 48 hours, or 10 μM ALLN for 24” for “48”, “analyze” for “analyze the”, “were” for “are”, “treatment (NT),” for “treatment,”
# RNA was harvested using RNeasy Mini kit (Qiagen, Cat. No. 74104) and first-strand cDNA synthesis was performed with the TaqMan Reverse Transcription Reagents for qRT-PCR (Applied Biosystems Inc., Foster City, Calif., Cat. No. N8080234) according to the manufacturers' protocol. Samples were analyzed by quantitative real-time PCR on an ABI 7300 real-time PCR instrument (Applied Biosystems) using the ΔΔCT method. PCR reaction mixtures contained 75 ng of cDNA, 1×SYBR Green Mix (Applied Biosystems, Cat. No. 4367659), and 100 nM primers. Values were normalized to those of the hprt1 housekeeping gene (47).
# [5] = molecular target: T2, full-length Flag-Mdm2 (Homo sapiens, UniProt Q00987); test: in vitro ubiquitination assay, full-length Flag-Mdm2; format: biochemical
# T2 construct: 100 ng of full-length Flag-Mdm2; made in house; host or cells: Sf9 insect cells (baculovirus; virus a gift from S. Grossman)
# T2 sequence (Q00987 whole entry): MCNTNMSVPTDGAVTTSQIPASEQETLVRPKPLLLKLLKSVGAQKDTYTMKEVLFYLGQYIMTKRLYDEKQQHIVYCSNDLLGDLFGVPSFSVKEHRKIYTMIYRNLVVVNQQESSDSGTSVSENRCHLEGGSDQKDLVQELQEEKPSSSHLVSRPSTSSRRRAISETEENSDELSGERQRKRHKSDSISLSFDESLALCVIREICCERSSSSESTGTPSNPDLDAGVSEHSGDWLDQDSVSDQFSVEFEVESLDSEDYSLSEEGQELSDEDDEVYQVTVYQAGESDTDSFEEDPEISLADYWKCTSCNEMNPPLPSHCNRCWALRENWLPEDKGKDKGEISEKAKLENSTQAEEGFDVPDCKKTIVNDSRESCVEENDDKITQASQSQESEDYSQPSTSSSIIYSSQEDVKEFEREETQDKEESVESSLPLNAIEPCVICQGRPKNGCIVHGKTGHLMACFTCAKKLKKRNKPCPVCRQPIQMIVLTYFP
# Protocol: These assays were performed with 100 ng of full-length Flag-Mdm2 or 200 ng of Flag-Mdm2/HA-MdmX complexes (100 ng of each protein as each are present in a 1:1 ratio, when purified), ^32P-labeled ubiquitin, UbCH5c, and E1. Following a 30-minute incubation at 37° C., reactions were terminated and resolved on a SDS-PAGE gel followed by autoradiography. PC indicates positive control, and NC indicates negative control with UbCH5C eliminated from the reaction. The gels were quantified by phosphoimaging using ImageQuant software (GE Healthcare Bio-Sciences Corp., Piscataway, N.J.). […] Reactions were performed as in FIG. 11A except 500 ng GST-Mdm2 (residues 400-491) and GST-MdmX (residues 400-490) were used for ubiquitin polymerization. […]
# Full-length Mdm2 in vitro ubiquitination reactions were performed in 15 μl reaction mixtures containing 50 mM TrisHC1 pH 7.5, 5 mM MgCl2, 2 mM NaF, 2 mM ATP, 0.6 mM DTT, 50 ng E1 (Boston Biochem, Cat. No. E-305), 1 μg PK-ubiquitin, 50 ng His-UbCH5C, and 100 ng Flag-Mdm2. […] The products were resolved by SDS-PAGE and analyzed by Western blot with anti-p53, anti-Mdm2 SMP14, 2A10, 3G5 mix, or anti-MdmX antibodies. […]
# Referring now to FIG. 28b, as shown, Mdm2 in vitro ubiquitination is not inhibited by MEL17 treatment. […] Samples were analyzed by Western blotting with anti-Mdm2 antibodies. […]
compound,measurement,setting,value
CCCCn1c(=O)[nH]c(O)c(C2NCCc3c2[nH]c2ccccc32)c1=O (stereo not shown) [MEL23],Mdm2 level in MEFs,[1],increased Mdm2 in MEFs
same,ubiquitination of the Mdm2 RING-MdmX RING hetero-complex,[2],inhibited
same,synergy of MEL23 with Nutlin-3 on viability,"[3]; 48 hours, excess over Bliss independence","Synergy between MEL23 and Nutlin-3 occurred, but to a lesser extent than the combination of MEL23 and DNA-damaging agents"
same,synergy with DNA damaging agents in p53-null cells,[3]; H1299 (p53-null),"synergized with DNA damaging agents; also recorded: cooperated with DNA-damaging agents in p53-null cells to a small, yet reproducible, extent"
same,synergy with camptothecin or etoposide on viability,"[3]; U2OS and H1299, 48 hours, excess over Bliss independence",synergistic effect on viability
same,"mRNA levels of p53 target genes Mdm2, p21, Bax, puma",[4],increased within 48 hours of treatment; also recorded: increased the transcription of p53 target genes to intermediate levels compared to doxorubicin and ALLN
same,Mdm2 ligase activity (full-length Mdm2 in vitro ubiquitination),[5],little to no inhibitory effect
